Laboratory results reported in patent US20240190838A1, “LZK-TARGETING DEGRADERS AND METHODS OF USE” (The U.S.A., as represented by the Secretary, Department of …, priority 2020, published 2024).
Positions count from the first letter of the chain named.

Legend:
[1] = target: T1, LZK^Q240S (Homo sapiens, UniProt O43283, Q240S); assay: JNK signaling with drug-resistant mutant LZK Q240S; format: cell-based; settings: drug-resistant mutant expression
T1 construct: FLAG (transient 293T overexpression vector); expressed in transfected cells
T1 sequence (O43283 1-966 Q240S): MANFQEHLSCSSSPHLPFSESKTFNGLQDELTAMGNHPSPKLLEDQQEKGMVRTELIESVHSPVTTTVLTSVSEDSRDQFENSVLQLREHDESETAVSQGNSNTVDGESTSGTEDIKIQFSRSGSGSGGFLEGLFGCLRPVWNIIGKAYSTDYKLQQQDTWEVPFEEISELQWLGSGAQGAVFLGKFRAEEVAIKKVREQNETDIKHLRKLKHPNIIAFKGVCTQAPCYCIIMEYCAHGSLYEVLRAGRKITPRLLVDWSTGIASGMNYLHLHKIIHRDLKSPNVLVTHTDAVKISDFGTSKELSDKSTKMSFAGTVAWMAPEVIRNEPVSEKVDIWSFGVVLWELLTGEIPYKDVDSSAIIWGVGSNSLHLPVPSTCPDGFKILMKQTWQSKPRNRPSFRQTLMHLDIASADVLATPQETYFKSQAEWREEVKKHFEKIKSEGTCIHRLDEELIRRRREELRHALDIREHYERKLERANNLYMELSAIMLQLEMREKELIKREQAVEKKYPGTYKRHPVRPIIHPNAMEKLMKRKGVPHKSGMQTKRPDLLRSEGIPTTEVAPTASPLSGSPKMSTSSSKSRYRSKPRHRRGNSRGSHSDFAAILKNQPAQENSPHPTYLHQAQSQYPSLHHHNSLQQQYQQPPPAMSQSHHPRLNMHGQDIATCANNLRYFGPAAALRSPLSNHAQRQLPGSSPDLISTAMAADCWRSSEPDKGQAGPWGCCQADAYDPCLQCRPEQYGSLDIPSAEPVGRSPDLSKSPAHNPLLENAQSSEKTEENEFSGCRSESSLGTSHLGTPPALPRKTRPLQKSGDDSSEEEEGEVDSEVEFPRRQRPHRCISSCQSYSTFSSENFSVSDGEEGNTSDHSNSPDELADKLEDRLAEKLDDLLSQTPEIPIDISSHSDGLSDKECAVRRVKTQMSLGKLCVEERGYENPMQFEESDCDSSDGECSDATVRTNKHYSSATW
Experimental: The ViraPower HiPerform T-REx Gateway Expression System (Invitrogen) was used to generate cells with tetracycline-inducible expression of LZK. […] Cell lines were generated by antibiotic selection (blasticidin [Gibco] and geneticin [Gibco]). Doxycycline (Sigma-Aldrich) was used at 1 μg/mL to induce LZK expression.
Protein concentrations were determined from the cell lysate by using 660 nm Protein Assay Reagent (Pierce).

[2] = Kinetic solubility assay; format: physicochemical; settings: kinetic from dmso stock
[3] = target: T2, LZK (Homo sapiens, UniProt O43283); assay: LZK degradation (doxycycline-induced LZK expression, immunoblot) in CAL33 cells; format: cell-based; design: V5 (named only in the vector); expressed in transfected cells; host or cells: CAL33 HNSCC cells, lentiviral T-REx system, induced with doxycycline
T2 sequence (O43283 1-966): T1 sequence (O43283 1-966 Q240S) with S240Q
From the text: The ViraPower HiPerform T-REx Gateway Expression System (Invitrogen) was used to generate cells with tetracycline-inducible expression of LZK. In brief, wild-type (WT) or drug-resistant mutant (Q240S) LZK (cloned into pLenti6.3/TO/V5-DEST vector) and pLenti3.3/TR (for tetracycline repressor expression) were transfected into 293FT cells using Lipofectamine 2000 to generate lentiviral stock. Cell lines were generated by antibiotic selection (blasticidin [Gibco] and geneticin [Gibco]). Doxycycline (Sigma-Aldrich) was used at 1 μg/mL to induce LZK expression.
Generally, cells were plated in six-well or 35-mm plates for 24 hours, after which doxycycline was added or treatment with specific inhibitor was administered using […] for 48 hours. After appropriate treatment time, cells were washed with ice-cold phosphate-buffered saline without Ca and Mg (Quality Biological) and then lysed on ice with RIPA buffer (50 mM NaCl, 1.0% o IGEPAL® CA-630, 0.5% o sodium deoxycholate, 0.10% SDS, 50 mM Tris, pH 8.0) (Sigma-Aldrich) supplemented with protease inhibitor tablet (Sigma-Aldrich) and phosphatase inhibitor cocktails 2 and 3 (Sigma-Aldrich) followed by centrifugation at 15,000 rpm for 10 minutes at 4° C. Protein concentrations were determined from the cell lysate by using 660 nm Protein Assay Reagent (Pierce). Cell extracts were denatured, subjected to SDS-PAGE, transferred to PVDF membranes (Bio-Rad) and blocked for 2 hours using 5 bovine serum albumin (BSA) in phosphate-buffered saline and 0.10 Tween® 20 (PBS-T). The membranes were incubated with the specific antibodies overnight in […] at 4° C. followed by a 1 hour incubation with the appropriate horseradish peroxidase-conjugated secondary antibodies and signal was detected by chemiluminescence (Thermo Fisher).

SMILES | JNK signaling / catalytic activity of LZK Q240S in presence of inhibitor [1] | solubility [2] [µg/mL] | LZK degradation ([3]; 1 μM for 48 hours) | rescue of degrader-mediated loss of LZK expression by MG132 ([3]; two-hour pretreatment MG132 (3 μM), degrader 1 μM 24 hours) | rescue of degrader-mediated loss of LZK expression by MLN4924 ([3]; two-hour pretreatment MLN4924 (500 nM), degrader 1 μM 24 hours)
CC(=O)N1CCC(c2cc(Nc3cc(C#N)ccn3)nc(N3CCC(F)(F)C3)c2)CC1 [LZK inhibitor 2] | rescued JNK signaling |  |  |  | 
Cc1ncsc1-c1ccc([C@H](C)NC(=O)[C@@H]2C[C@@H](O)CN2C(=O)[C@@H](NC(=O)CCCCCCC(=O)N2CCC(c3cc(Nc4cc(C#N)ccn4)nc(N4CCC(F)(F)C4)c3)CC2)C(C)(C)C)cc1 [Compound 3] |  | < 1 | degraded LZK | rescued by adding a proteasome inhibitor (MG132) | rescued with MLN4924
